From ChEMBL document CHEMBL1155045, “Apoptosis-inducing galactolipids from a cultured marine diatom, Phaeodactylum tricornutum” (2008)

How the values were obtained:
Format in all cases: functional
[1] = Effect on apoptosis-inducing gene deffective mouse D3 cells assessed as cell growth at 64 uM after 48 hrs by MTT assay; conditions: D3, 48 h, read-out: Activity
[2] = Induction of apoptosis in mouse W2 cells assessed as cell death at 64 uM after 48 hrs by MTT assay
[3] = Effect on apoptosis-inducing gene deffective mouse D3 cells assessed as cell growth at 52 uM after 48 hrs by MTT assay; conditions: D3, 48 h, read-out: Activity
[4] = Induction of apoptosis in mouse W2 cells assessed as cell death at 52 uM after 48 hrs by MTT assay

Structure (SMILES): CC/C=C\C/C=C\C/C=C\C/C=C\C/C=C\CC(=O)OC[C@H](CO[C@@H]1O[C@H](CO)[C@H](O)[C@H](O)C1O)OC(=O)CCCC/C=C\C/C=C\C/C=C\C/C=C\CC (single isomer, unassigned)
- growth at 64 µM [1]: 14%
- Activity [2]: 18%

Structure (SMILES): CC/C=C\C/C=C\C/C=C\C/C=C\C/C=C\CCCC(=O)OC[C@H](CO[C@@H]1O[C@H](CO)[C@H](O)[C@H](O)C1O)OC(=O)CCCC/C=C\C/C=C\C/C=C\CCC (single isomer, unassigned)
- growth at 52 µM [3]: 10%
- Activity [4]: 18%
